Source: US9695209B2, “Synthesis of amphiphilic calixarene glycoside detergents and use of same for extracting and stabilizing native functional membrane proteins” (CALIXAR, priority 2014, dated 2017)
Where two headings read alike, the source gives them in different places. Blank lines part the entries; values can stand above or below the compound they belong to.

What was measured:
A2A adenosine protein = A2A adenosine protein (Homo sapiens, UniProt P29274); experiment: Test of solubilization of A2A membrane protein (Western Blot after 100 000 g centrifugation); details: for solubility (solubilization) of A2A adenosine protein: 4° C, protein 20 mg/ml
Chain of A2A adenosine protein (P29274 whole entry): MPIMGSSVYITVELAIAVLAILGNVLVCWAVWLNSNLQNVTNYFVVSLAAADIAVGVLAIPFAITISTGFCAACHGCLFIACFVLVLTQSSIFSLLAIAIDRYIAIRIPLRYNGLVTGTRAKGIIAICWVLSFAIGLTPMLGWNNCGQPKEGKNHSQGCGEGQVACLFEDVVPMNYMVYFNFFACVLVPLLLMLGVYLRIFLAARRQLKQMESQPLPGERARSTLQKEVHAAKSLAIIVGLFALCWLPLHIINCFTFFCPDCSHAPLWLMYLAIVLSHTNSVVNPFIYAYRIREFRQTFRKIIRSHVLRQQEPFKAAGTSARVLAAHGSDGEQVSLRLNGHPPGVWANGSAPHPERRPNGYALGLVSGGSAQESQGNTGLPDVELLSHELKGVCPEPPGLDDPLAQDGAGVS
Experimental: Solubility Test of Protein of Interest: A2A Adenosine.
The protein content was set at 20 mg/ml (20 mM Tris-Cl pH 8.0, 150 mM NaCl, 10% Glycerol). The solubilization is effected at 4° C. The solubilized or non-solubilized protein fractions are separated by a 100 000 g centrifugation step for 1 hour at 4° C.

[1] = target: T1, Bacteriorhodopsin protein (bR) (Halobacterium salinarum, UniProt P02945); experiment: Stability test of bacteriorhodopsin protein over time (absorbance at 550 nm); details: after 1 month and a half exposure at 37° C. in the dark
T1 sequence (P02945 14-262): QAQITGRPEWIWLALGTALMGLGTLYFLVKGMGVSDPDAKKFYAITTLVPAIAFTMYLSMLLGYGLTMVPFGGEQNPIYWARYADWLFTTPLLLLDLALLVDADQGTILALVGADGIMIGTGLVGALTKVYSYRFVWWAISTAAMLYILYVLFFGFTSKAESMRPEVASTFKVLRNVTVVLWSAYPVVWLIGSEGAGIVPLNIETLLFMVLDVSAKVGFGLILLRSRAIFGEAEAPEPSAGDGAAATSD

[2] = Average particle size of aggregates by DLS (Dynamic Light Scattering); assay type: physicochemical
Experimental: FIGS. 3a) and 3b) are two diagrams showing the average particle size obtained by DLS (Dynamic Light Scattering) analysis of CALX173GALO compound (FIG. 3a) and CALX173GLUK compound (FIG. 3b) at respectively 0.47 and 0.08 mM.
FIGS. 3a and 3b show the aggregation state of CALX173GALO and CALX173GLUK. As illustrated, all the systems observed form aggregates of the micellar type.

[3] = CMC (H2O) of known detergents as stated in figure legend; assay type: physicochemical; details: no source given
[4] = from VanAken et al. 1986; cited from earlier work

Compound: 5,11,17-Tris{2-[4-(b-D-glucopyranosyl)-1H-1,2,3-triazol-1-yl]-ethyl}-25-heptoxy-26,27,28-trismethoxy-calix[4]arene [CALX173GLUK]
- solubility (solubilization) of A2A adenosine protein (A2A adenosine protein; detergent at 8 CMC): nonexistent
- solubility (solubilization) of A2A adenosine protein (A2A adenosine protein; detergent at 20 CMC): enhances the solubilization
- absorbance at 550 nm of bR protein [1]: 0.75
- dparticules (average particle size by DLS) ([2]; at 0.08 mM): 5.53 nm

- CMC (H2O) [3]: 2.5 mM
Compound: 25-heptyloxy-26,27,28-tris(hydroxyl)calix-[4]-arene-5,11,17-tris(acetic acid) sodium salt [CALX173ACE]

Compound: CCCCCCCOc1c2cccc1Cc1cc(CCO[C@@H]3O[C@H](CO)[C@H](O)[C@H](O)[C@H]3O)cc(c1OC)Cc1cc(CCO[C@@H]3O[C@H](CO)[C@H](O)[C@H](O)[C@H]3O)cc(c1OC)Cc1cc(CCO[C@@H]3O[C@H](CO)[C@H](O)[C@H](O)[C@H]3O)cc(c1OC)C2 [CALX173GALO, 5,11,17-Tris[2-(b-D-galactopyranosyloxy)ethyl]-25-heptoxy-26,27,28-trismethoxy-calix[4]arene]
- solubilization of A2A protein compared with reference compounds DDM and CALX173ACE (A2A adenosine protein; 20 CMC): better
- solubility (solubilization) of A2A adenosine protein (A2A adenosine protein; detergent at 20 CMC): partial
- absorbance at 550 nm of bR protein [1]: around 0.4
- dparticules (average particle size by DLS) ([2]; at 0.47 mM): 5.46 nm

- solubilization of A2A protein (A2A adenosine protein; 20 CMC, reference compounds): about 20%
- solubility (solubilization) of A2A adenosine protein (A2A adenosine protein; detergent at 20 CMC): partial
Compound: CCCCCCCCCCCCO[C@@H]1O[C@H](CO)[C@@H](O[C@H]2O[C@H](CO)[C@@H](O)[C@H](O)[C@H]2O)[C@H](O)[C@H]1O [DDM, n-dodecyl-β-D-maltopyranoside, reference compound]
- CMC (H2O) [4]: 0.17 mM

Compound: CCCCCCCCO[C@@H]1O[C@H](CO)[C@@H](O)[C@H](O)[C@H]1O [OG, Octyl Glucoside, reference compound]
- stability of the bR protein [1]: nonexistent

Compound: Maltose-Neopentyl Glycol [MNG-12, reference compound]
- absorbance at 550 nm of bR protein [1]: around 0.4
